#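 1) Cells in 96-well plates. 2) Compound, 48 h, 5 concentrations. 3) Linear interpolation between surrounding doses. 4) Unreached endpoint = highest concentration. Abbreviation: GI50, concentration required for 50% inhibition of growth. The concentration for full growth arrest is given as TGI.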
# Experiments:
# Assay in all cases: growth of human tumour cells (NCI), 48 h
# [1] = tested on: 786-0 renal
# [2] = tested on: A549 NSCLC
# [3] = tested on: CAKI-1 renal
# [4] = tested on: CCRF-CEM leukemia
# [5] = tested on: COLO 205 colon
# [6] = tested on: DU-145 prostate
# [7] = tested on: EKVX NSCLC
# [8] = tested on: HCC-2998 colon
# [9] = tested on: HCT-15 colon
# [10] = tested on: HL-60(TB) leukemia
# [11] = tested on: HOP-62 NSCLC
# [12] = tested on: HT29 colon
# [13] = tested on: IGROV1 ovarian
# [14] = tested on: K-562 leukemia
# [15] = tested on: KM12 colon
# [16] = tested on: LOX IMVI melanoma
# [17] = tested on: M14 melanoma
# [18] = tested on: MALME-3M melanoma
# [19] = tested on: MCF7 breast
# [20] = tested on: MDA-MB-231 breast
# [21] = tested on: MDA-N
# [22] = tested on: NCI-H23 lung
# [23] = tested on: OVCAR-8 ovarian
# [24] = tested on: PC-3 prostate
# [25] = tested on: RPMI-8226 leukemia
# [26] = tested on: RXF 393 renal
# [27] = tested on: SF-268 CNS
# [28] = tested on: SK-MEL-28 melanoma
# [29] = tested on: SK-MEL-5 melanoma
# [30] = tested on: SK-OV-3 ovarian
# [31] = tested on: SN12C renal
# [32] = tested on: SNB-75 CNS
# [33] = tested on: SW-620 colon
# [34] = tested on: T-47D breast
# [35] = tested on: TK-10 renal
# [36] = tested on: UACC-257 melanoma
# [37] = tested on: UACC-62 melanoma
# [38] = tested on: A498 renal
# [39] = tested on: ACHN renal
# [40] = tested on: BT-549 breast
# [41] = tested on: HCT-116 colon
# [42] = tested on: HOP-92 NSCLC
# [43] = tested on: HS 578T breast
# [44] = tested on: MDA-MB-435
# [45] = tested on: MOLT-4 leukemia
# [46] = tested on: NCI-H226 lung
# [47] = tested on: NCI-H460 lung
# [48] = tested on: NCI-H522 lung
# [49] = tested on: NCI/ADR-RES ovarian
# [50] = tested on: OVCAR-3 ovarian
# [51] = tested on: OVCAR-4 ovarian
# [52] = tested on: OVCAR-5 ovarian
# [53] = tested on: SF-295 CNS
# [54] = tested on: SF-539 CNS
# [55] = tested on: SK-MEL-2 melanoma
# [56] = tested on: SNB-19 CNS
# [57] = tested on: SR leukemia
# [58] = tested on: U251 CNS
# [59] = tested on: UO-31 renal
smiles,measurement,setting,value
CCN(CC)CCCNc1ccc([N+](=O)[O-])c2nc3ccc(OC)cc3c(NCCCN(CC)CC)c12,TGI,[1],2.76 µM
same,TGI,[2],3.73 µM
same,TGI,[3],> 10 µM
same,TGI,[4],7.37 µM
same,TGI,[5],> 10 µM
same,TGI,[6],> 10 µM
same,TGI,[7],> 10 µM
same,TGI,[8],3.03 µM
same,TGI,[9],2.79 µM
same,TGI,[10],1.04 µM
same,TGI,[11],> 10 µM
same,TGI,[12],3.42 µM
same,TGI,[13],> 10 µM
same,TGI,[14],3.75 µM
same,TGI,[15],3.05 µM
same,TGI,[16],2.69 µM
same,TGI,[17],> 10 µM
same,TGI,[18],> 10 µM
same,TGI,[19],3.56 µM
same,TGI,[20],2.84 µM
same,TGI,[21],> 10 µM
same,TGI,[22],4.76 µM
same,TGI,[23],2.7 µM
same,TGI,[24],2.9 µM
same,TGI,[25],5.81 µM
same,TGI,[26],4.05 µM
same,TGI,[27],> 10 µM
same,TGI,[28],> 10 µM
same,TGI,[29],> 10 µM
same,TGI,[30],> 10 µM
same,TGI,[31],5.89 µM
same,TGI,[32],> 10 µM
same,TGI,[33],3.98 µM
same,TGI,[34],> 10 µM
same,TGI,[35],> 10 µM
same,TGI,[36],> 10 µM
same,TGI,[37],> 10 µM
FC(F)(F)c1ccc2c(Nc3cccc(C4CC(c5ccccc5)=NN4c4ccc(Cl)cc4)c3)ccnc2c1 (centres undefined),GI50,[1],2.73 µM
same,TGI,[1],10.7 µM
same,GI50,[38],9.9 µM
same,TGI,[38],45.6 µM
same,GI50,[2],10.7 µM
same,TGI,[2],44.8 µM
same,GI50,[39],2.9 µM
same,TGI,[39],11.1 µM
same,GI50,[40],2.29 µM
same,TGI,[40],7.4 µM
same,GI50,[4],3.32 µM
same,TGI,[4],38.5 µM
same,GI50,[5],10.7 µM
same,TGI,[5],> 100 µM
same,GI50,[6],3.61 µM
same,TGI,[6],15.4 µM
same,GI50,[7],10.9 µM
same,TGI,[7],59.5 µM
same,GI50,[8],1.96 µM
same,TGI,[8],4.01 µM
same,GI50,[41],1.62 µM
same,TGI,[41],3.63 µM
same,GI50,[9],1.61 µM
same,TGI,[9],4.26 µM
same,GI50,[10],4.04 µM
same,TGI,[10],18.8 µM
same,GI50,[42],3.21 µM
same,TGI,[42],40.5 µM
same,GI50,[43],4.43 µM
same,TGI,[43],43.2 µM
same,GI50,[12],3.3 µM
same,TGI,[12],12.5 µM
same,GI50,[13],2.57 µM
same,TGI,[13],11 µM
same,GI50,[14],3.31 µM
same,TGI,[14],14.3 µM
same,GI50,[15],3.16 µM
same,TGI,[15],16.7 µM
same,GI50,[16],1.68 µM
same,TGI,[16],3.81 µM
same,GI50,[17],3.93 µM
same,TGI,[17],22 µM
same,GI50,[18],4.38 µM
same,TGI,[18],21 µM
same,GI50,[19],1.67 µM
same,TGI,[19],10.6 µM
same,GI50,[20],3.88 µM
same,TGI,[20],15.9 µM
same,GI50,[44],2.97 µM
same,TGI,[44],11.6 µM
same,GI50,[45],3.6 µM
same,TGI,[45],19.5 µM
same,GI50,[46],15 µM
same,TGI,[46],36.2 µM
same,GI50,[22],4.22 µM
same,TGI,[22],25.3 µM
same,GI50,[47],4.08 µM
same,TGI,[47],17.2 µM
same,GI50,[48],6.16 µM
same,TGI,[48],38.6 µM
same,GI50,[49],2.63 µM
same,TGI,[49],10.3 µM
same,GI50,[50],2.21 µM
same,TGI,[50],6.02 µM
same,GI50,[51],4.99 µM
same,TGI,[51],28.9 µM
same,GI50,[52],4.13 µM
same,TGI,[52],20.5 µM
same,GI50,[23],3.57 µM
same,TGI,[23],19.7 µM
same,GI50,[24],3.77 µM
same,TGI,[24],16.6 µM
same,GI50,[25],2.3 µM
same,TGI,[25],6.46 µM
same,GI50,[26],4.82 µM
same,TGI,[26],20.1 µM
same,GI50,[27],3.35 µM
same,TGI,[27],21.5 µM
same,GI50,[53],2.25 µM
same,TGI,[53],8.67 µM
same,GI50,[54],4.78 µM
same,TGI,[54],19.5 µM
same,GI50,[55],15.1 µM
same,TGI,[55],42.9 µM
same,GI50,[28],4.54 µM
same,TGI,[28],18.3 µM
same,GI50,[29],8.77 µM
same,TGI,[29],26.5 µM
same,GI50,[30],11.2 µM
same,TGI,[30],36.4 µM
same,GI50,[31],2.96 µM
same,TGI,[31],14.6 µM
same,GI50,[56],4.38 µM
same,TGI,[56],27 µM
same,GI50,[32],2.67 µM
same,TGI,[32],20.8 µM
same,GI50,[57],1.26 µM
same,TGI,[57],9.41 µM
same,GI50,[33],2.79 µM
same,TGI,[33],8.34 µM
same,GI50,[34],5.93 µM
same,TGI,[34],37.4 µM
same,GI50,[35],4.76 µM
same,TGI,[35],21.4 µM
same,GI50,[58],3.24 µM
same,TGI,[58],14.4 µM
same,GI50,[36],11.2 µM
same,TGI,[36],32.6 µM
same,GI50,[37],2.64 µM
same,TGI,[37],10.6 µM
same,GI50,[59],1.82 µM
same,TGI,[59],9.68 µM
